Results from US11459323B2, “Monocyclic β-lactam compound for treating bacterial infection” (MEDSHINE DISCOVERY INC., priority 2018, dated 2022).
Converted amounts (≈) assume the structure as drawn. Where two headings read alike, the source gives them in different places. Each block holds one compound with its values, some of them ahead of it.

What was measured:
Assay in all cases: MIC on clinically isolated bacteria
Assay type in all cases: cell-based
[1] = tested on: Acinetobacter baumannii C241
From the text: (§1) Twenty-five strains of clinically isolated Acinetobacter baumannii and twenty-seven strains of Pseudomonas aeruginosa were respectively selected and used to determine the minimum inhibitory concentration (MIC) of the compounds by micro-liquid dilution method according to the Institute of Clinical and Laboratory Standard (CLSI) requirements.

[2] = tested on: Acinetobacter baumannii C251
From the text: as §1

[3] = tested on: Acinetobacter baumannii C270
From the text: as §1

[4] = tested on: Acinetobacter baumannii C279
From the text: as §1

[5] = tested on: Acinetobacter baumannii C283
From the text: as §1

[6] = tested on: Acinetobacter baumannii C312
From the text: as §1

[7] = tested on: Acinetobacter baumannii C313
From the text: as §1

[8] = tested on: Acinetobacter baumannii C315
From the text: as §1

[9] = tested on: Acinetobacter baumannii C319
From the text: as §1

[10] = tested on: Acinetobacter baumannii C328
From the text: as §1

[11] = tested on: Acinetobacter baumannii C330
From the text: as §1

[12] = tested on: Acinetobacter baumannii C332
From the text: as §1

[13] = tested on: Acinetobacter baumannii C333
From the text: as §1

[14] = tested on: Acinetobacter baumannii C361
From the text: as §1

[15] = tested on: Acinetobacter baumannii C390
From the text: as §1

[16] = tested on: Acinetobacter baumannii C394
From the text: as §1

[17] = tested on: Acinetobacter baumannii C395
From the text: as §1

[18] = tested on: Acinetobacter baumannii C401
From the text: as §1

[19] = tested on: Acinetobacter baumannii C402
From the text: as §1

[20] = tested on: Acinetobacter baumannii C403
From the text: as §1

[21] = tested on: Acinetobacter baumannii C427
From the text: as §1

[22] = tested on: Pseudomonas aeruginosa C754
From the text: as §1

[23] = tested on: Pseudomonas aeruginosa C755
From the text: as §1

[24] = tested on: Pseudomonas aeruginosa C761
From the text: as §1

[25] = tested on: Pseudomonas aeruginosa C762
From the text: as §1

[26] = tested on: Pseudomonas aeruginosa C763
From the text: as §1

[27] = tested on: Pseudomonas aeruginosa M1
From the text: as §1

[28] = tested on: Pseudomonas aeruginosa W13
From the text: as §1

[29] = tested on: Pseudomonas aeruginosa W19
From the text: as §1

[30] = tested on: Pseudomonas aeruginosa W1
From the text: as §1

[31] = tested on: Pseudomonas aeruginosa W21
From the text: as §1

[32] = tested on: Pseudomonas aeruginosa W24
From the text: as §1

[33] = tested on: Pseudomonas aeruginosa W27
From the text: as §1

[34] = tested on: Pseudomonas aeruginosa W28
From the text: as §1

[35] = tested on: Pseudomonas aeruginosa W35
From the text: as §1

[36] = tested on: Pseudomonas aeruginosa W42
From the text: as §1

[37] = tested on: Pseudomonas aeruginosa W46
From the text: as §1

[38] = tested on: Pseudomonas aeruginosa W4
From the text: as §1

[39] = tested on: Pseudomonas aeruginosa W6
From the text: as §1

[40] = tested on: Pseudomonas aeruginosa W9
From the text: as §1

Structure (SMILES): CN(C)c1cc(NC(=O)CNC(C)(C)C)c(O)c2c1C[C@H]1C[C@H]3[C@H](N(C)C)C(O)=C(C(N)=O)C(=O)[C@@]3(O)C(O)=C1C2=O [Tigecycline, reference compound]
MIC ([1]; Acinetobacter baumannii, C241, read-out: Minimum Inhibitory Concentration (MIC)): 2 µg/mL (≈ 3.41 µM)
MIC ([2]; Acinetobacter baumannii, C251, read-out: Minimum Inhibitory Concentration (MIC)): 8 µg/mL (≈ 13.7 µM)
MIC ([3]; Acinetobacter baumannii, C270, read-out: Minimum Inhibitory Concentration (MIC)): 1 µg/mL (≈ 1.71 µM)
MIC ([4]; Acinetobacter baumannii, C279, read-out: Minimum Inhibitory Concentration (MIC)): 1 µg/mL (≈ 1.71 µM)
MIC ([5]; Acinetobacter baumannii, C283, read-out: Minimum Inhibitory Concentration (MIC)): 1 µg/mL (≈ 1.71 µM)
MIC ([6]; Acinetobacter baumannii, C312, read-out: Minimum Inhibitory Concentration (MIC)): 1 µg/mL (≈ 1.71 µM)
MIC ([7]; Acinetobacter baumannii, C313, read-out: Minimum Inhibitory Concentration (MIC)): 1 µg/mL (≈ 1.71 µM)
MIC ([8]; Acinetobacter baumannii, C315, read-out: Minimum Inhibitory Concentration (MIC)): 1 µg/mL (≈ 1.71 µM)
MIC ([9]; Acinetobacter baumannii, C319, read-out: Minimum Inhibitory Concentration (MIC)): 1 µg/mL (≈ 1.71 µM)
MIC ([10]; Acinetobacter baumannii, C328, read-out: Minimum Inhibitory Concentration (MIC)): 1 µg/mL (≈ 1.71 µM)
MIC ([11]; Acinetobacter baumannii, C330, read-out: Minimum Inhibitory Concentration (MIC)): 1 µg/mL (≈ 1.71 µM)
MIC ([12]; Acinetobacter baumannii, C332, read-out: Minimum Inhibitory Concentration (MIC)): 1 µg/mL (≈ 1.71 µM)
MIC ([13]; Acinetobacter baumannii, C333, read-out: Minimum Inhibitory Concentration (MIC)): 1 µg/mL (≈ 1.71 µM)
MIC ([14]; Acinetobacter baumannii, C361, read-out: Minimum Inhibitory Concentration (MIC)): 1 µg/mL (≈ 1.71 µM)
MIC ([15]; Acinetobacter baumannii, C390, read-out: Minimum Inhibitory Concentration (MIC)): 1 µg/mL (≈ 1.71 µM)
MIC ([16]; Acinetobacter baumannii, C394, read-out: Minimum Inhibitory Concentration (MIC)): 1 µg/mL (≈ 1.71 µM)
MIC ([17]; Acinetobacter baumannii, C395, read-out: Minimum Inhibitory Concentration (MIC)): 1 µg/mL (≈ 1.71 µM)
MIC ([18]; Acinetobacter baumannii, C401, read-out: Minimum Inhibitory Concentration (MIC)): 1 µg/mL (≈ 1.71 µM)
MIC ([19]; Acinetobacter baumannii, C402, read-out: Minimum Inhibitory Concentration (MIC)): 1 µg/mL (≈ 1.71 µM)
MIC ([20]; Acinetobacter baumannii, C403, read-out: Minimum Inhibitory Concentration (MIC)): 1 µg/mL (≈ 1.71 µM)
MIC ([21]; Acinetobacter baumannii, C427, read-out: Minimum Inhibitory Concentration (MIC)): 1 µg/mL (≈ 1.71 µM)
MIC [22]: 8 µg/mL (≈ 13.7 µM)
MIC [23]: 4 µg/mL (≈ 6.83 µM)
MIC [24]: 16 µg/mL (≈ 27.3 µM)
MIC [25]: > 16 µg/mL
MIC [26]: > 16 µg/mL
MIC [27]: 16 µg/mL (≈ 27.3 µM)
MIC [28]: 8 µg/mL (≈ 13.7 µM)
MIC [29]: 8 µg/mL (≈ 13.7 µM)
MIC [30]: 16 µg/mL (≈ 27.3 µM)
MIC [31]: 8 µg/mL (≈ 13.7 µM)
MIC [32]: 16 µg/mL (≈ 27.3 µM)
MIC [33]: 16 µg/mL (≈ 27.3 µM)
MIC [34]: > 16 µg/mL
MIC [35]: 8 µg/mL (≈ 13.7 µM)
MIC [36]: 8 µg/mL (≈ 13.7 µM)
MIC [37]: 8 µg/mL (≈ 13.7 µM)
MIC [38]: 8 µg/mL (≈ 13.7 µM)
MIC [39]: 16 µg/mL (≈ 27.3 µM)
MIC [40]: 16 µg/mL (≈ 27.3 µM)

MIC ([1]; Acinetobacter baumannii C241, read-out: Minimum Inhibitory Concentration (MIC)): 2 µg/mL (≈ 2.87 µM)
MIC ([2]; Acinetobacter baumannii C251, read-out: Minimum Inhibitory Concentration (MIC)): 16 µg/mL (≈ 22.9 µM)
MIC ([3]; Acinetobacter baumannii C270, read-out: Minimum Inhibitory Concentration (MIC)): 2 µg/mL (≈ 2.87 µM)
MIC ([4]; Acinetobacter baumannii C279, read-out: Minimum Inhibitory Concentration (MIC)): 2 µg/mL (≈ 2.87 µM)
MIC ([5]; Acinetobacter baumannii C283, read-out: Minimum Inhibitory Concentration (MIC)): 2 µg/mL (≈ 2.87 µM)
MIC ([6]; Acinetobacter baumannii C312, read-out: Minimum Inhibitory Concentration (MIC)): 2 µg/mL (≈ 2.87 µM)
MIC ([7]; Acinetobacter baumannii C313, read-out: Minimum Inhibitory Concentration (MIC)): 2 µg/mL (≈ 2.87 µM)
MIC ([8]; Acinetobacter baumannii C315, read-out: Minimum Inhibitory Concentration (MIC)): 2 µg/mL (≈ 2.87 µM)
MIC ([9]; Acinetobacter baumannii C319, read-out: Minimum Inhibitory Concentration (MIC)): 2 µg/mL (≈ 2.87 µM)
MIC ([10]; Acinetobacter baumannii C328, read-out: Minimum Inhibitory Concentration (MIC)): 2 µg/mL (≈ 2.87 µM)
MIC ([11]; Acinetobacter baumannii C330, read-out: Minimum Inhibitory Concentration (MIC)): 2 µg/mL (≈ 2.87 µM)
MIC ([12]; Acinetobacter baumannii C332, read-out: Minimum Inhibitory Concentration (MIC)): 2 µg/mL (≈ 2.87 µM)
MIC ([13]; Acinetobacter baumannii C333, read-out: Minimum Inhibitory Concentration (MIC)): 2 µg/mL (≈ 2.87 µM)
MIC ([14]; Acinetobacter baumannii C361, read-out: Minimum Inhibitory Concentration (MIC)): 2 µg/mL (≈ 2.87 µM)
MIC ([15]; Acinetobacter baumannii C390, read-out: Minimum Inhibitory Concentration (MIC)): 2 µg/mL (≈ 2.87 µM)
MIC ([16]; Acinetobacter baumannii C394, read-out: Minimum Inhibitory Concentration (MIC)): 2 µg/mL (≈ 2.87 µM)
MIC ([17]; Acinetobacter baumannii C395, read-out: Minimum Inhibitory Concentration (MIC)): 2 µg/mL (≈ 2.87 µM)
MIC ([18]; Acinetobacter baumannii C401, read-out: Minimum Inhibitory Concentration (MIC)): 1 µg/mL (≈ 1.43 µM)
MIC ([19]; Acinetobacter baumannii C402, read-out: Minimum Inhibitory Concentration (MIC)): 2 µg/mL (≈ 2.87 µM)
MIC ([20]; Acinetobacter baumannii C403, read-out: Minimum Inhibitory Concentration (MIC)): 2 µg/mL (≈ 2.87 µM)
MIC ([21]; Acinetobacter baumannii C427, read-out: Minimum Inhibitory Concentration (MIC)): 2 µg/mL (≈ 2.87 µM)
MIC ([22]; read-out: MIC): 0.25 µg/mL (≈ 0.358 µM)
MIC ([23]; read-out: MIC): 0.25 µg/mL (≈ 0.358 µM)
MIC ([24]; read-out: MIC): 0.25 µg/mL (≈ 0.358 µM)
MIC ([25]; read-out: MIC): 8 µg/mL (≈ 11.5 µM)
MIC ([26]; read-out: MIC): 4 µg/mL (≈ 5.73 µM)
MIC ([27]; read-out: MIC): 0.5 µg/mL (≈ 0.717 µM)
MIC ([28]; read-out: MIC): 0.25 µg/mL (≈ 0.358 µM)
MIC ([29]; read-out: MIC): 0.25 µg/mL (≈ 0.358 µM)
MIC ([30]; read-out: MIC): 0.5 µg/mL (≈ 0.717 µM)
MIC ([31]; read-out: MIC): 0.25 µg/mL (≈ 0.358 µM)
MIC ([32]; read-out: MIC): 0.5 µg/mL (≈ 0.717 µM)
MIC ([33]; read-out: MIC): 0.5 µg/mL (≈ 0.717 µM)
MIC ([34]; read-out: MIC): 4 µg/mL (≈ 5.73 µM)
MIC ([35]; read-out: MIC): 0.125 µg/mL (≈ 0.179 µM)
MIC ([36]; read-out: MIC): 0.25 µg/mL (≈ 0.358 µM)
MIC ([37]; read-out: MIC): 0.25 µg/mL (≈ 0.358 µM)
MIC ([38]; read-out: MIC): 1 µg/mL (≈ 1.43 µM)
MIC ([39]; read-out: MIC): 0.5 µg/mL (≈ 0.717 µM)
MIC ([40]; read-out: MIC): 0.5 µg/mL (≈ 0.717 µM)
Structure (SMILES): CC1(C)[C@H](NC(=O)/C(=N\O[C@@H](COc2ccc3c(c2)CN(C(=N)NCCCCN)C3)C(=O)O)c2csc(N)n2)C(=O)N1OS(=O)(=O)O [Compound 36]
